The numbers were not newly measured in patent publication US8563014B2, “Modafinil oral lyophilizate” (Teva Sante, priority 2004, dated 2013), which cites them from elsewhere.

The structures appear in SMILES notation.

Data set [1] relates to monkeys. Conditions: single administration.
Data set [2] deals with mice. The settings on record: single administration.

Regarding `NC(=O)C[S+]([O-])C(c1ccccc1)c1ccccc1` (centres unmarked) [modafinil, 2-(benzhydrylsulfinyl)acetamide], the Nocturnal activity entry in data set [1] is “increased nocturnal activity”. Moreover, in data set [2], the Locomotor activity result was “increased locomotor activity”.
